In data set [1] the target is T1, TDP1 (Homo sapiens, UniProt Q9NUW8).
T1 construct: made in house; host or cells: Escherichia coli
The data set is described as follows: Real-time detection of TDP1 activity with fluorescent oligonucleotide biosensor. Format: biochemical. On the procedure: The compounds synthesized starting from (+)-3-carene 8 were tested for their TDP1 inhibitory properties by measuring their IC50 values using a real-time fluorescent oligonucleotide biosensor [38].
A fluorophore quencher-coupled oligonucleotide biosensor was used for TDP1 enzyme activity real-time fluorescence detection. […] Recombinant protein TDP1 was expressed in Escherichia coli (pET 16B plasmid containing TDP1 cDNA was provided by Dr. K.W. Caldecott, University of Sussex, United Kingdom) and isolated as described by Lebedeva et al.. The reaction mixture contained TDP1 reaction buffer (50 mM Tris-HCl, 50 mM NaCl, 7 mM β-mercaptoethanol), 50 nM oligonucleotide substrate, varied concentrations of the tested compounds, and 1.5 nM purified TDP1 in a final volume of 200 μL.
The TDP1 reaction mixture was incubated at rt in a POLARstar OPTIMA fluorimeter (BMG LABTECH, GmbH). Fluorescence intensity was measured every 1 min (Ex485/Em520 nm). The efficiency of TDP1 inhibition was evaluated by comparing the rate of increase in the fluorescence of the biosensor in the presence of the compound to that of DMSO (1.5%) control wells. IC50 values were determined using an 11-point concentration–response curve. The data were imported into MARS Data Analysis 2.0 program (BMG LABTECH) and the slope during the linear phase was calculated. The IC50 measurements were carried out in at least three independent experiments.

The subject of the next data set is in vivo Parkinson model. The following applies: ref [24]; cited from earlier work.
For data set [2] the following is noted: ref [24]; cited from earlier work.
The subject of data set [3] is TDP1. Further details: method as in PMID 31619021, PMID 30396105, PMID 30142660, PMID 29562592, PMID 27658793. Conditions: Figure 1; ref [10]-[13],[16]-[18],[20],[22]; read-out: IC50 of known TDP1 inhibitors; cited from earlier work.
For data set [4], the system named is human breast adenocarcinoma cell line MCF-7. Further details: method as in PMID 27658793. Conditions: ref [16]; cited from earlier work.
Another data set has as its system Krebs-2 ascites. More on the design: method as in PMID 31878088. Conditions: in vivo tumor model, ref [17]; cited from earlier work.

A value given as a limit tells only on which side of the number the result lay.

T1 sequence (Q9NUW8 whole entry): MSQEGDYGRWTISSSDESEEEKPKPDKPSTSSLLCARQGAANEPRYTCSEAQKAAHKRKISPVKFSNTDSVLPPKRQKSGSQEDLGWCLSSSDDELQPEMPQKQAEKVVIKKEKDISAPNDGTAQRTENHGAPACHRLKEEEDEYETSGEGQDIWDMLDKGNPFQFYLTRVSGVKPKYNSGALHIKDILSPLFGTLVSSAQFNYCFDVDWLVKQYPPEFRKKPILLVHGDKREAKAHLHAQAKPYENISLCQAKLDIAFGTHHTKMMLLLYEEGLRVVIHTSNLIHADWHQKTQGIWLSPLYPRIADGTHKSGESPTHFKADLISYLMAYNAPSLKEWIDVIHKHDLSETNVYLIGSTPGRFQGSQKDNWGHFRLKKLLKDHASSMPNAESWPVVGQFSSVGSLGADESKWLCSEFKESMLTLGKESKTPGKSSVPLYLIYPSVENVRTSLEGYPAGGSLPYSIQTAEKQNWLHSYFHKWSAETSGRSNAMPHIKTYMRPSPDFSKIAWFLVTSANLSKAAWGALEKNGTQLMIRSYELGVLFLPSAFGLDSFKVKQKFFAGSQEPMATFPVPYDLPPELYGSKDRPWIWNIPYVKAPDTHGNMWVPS

Consider `COc1cc(C2OC(C)(C)[C@@H]3CCC(C)=C[C@H]23)ccc1O` (mixture of isomers) [11a], for which the “activity against TDP1 (in words)” value on TDP1 [1] is given as “do not exhibit activity”. On TDP1 [1] (real-time fluorescent oligonucleotide biosensor, 1.5 nM TDP1, 50 nM substrate, read-out: IC50, TDP1 inhibition), the IC50 was > 20 µM. Also, in the data set on in vivo Parkinson model, the neuroprotective activity result is on record as “potent neuroprotective activity”. In addition, the acute toxicity entry in data set [2] is reported as “low acute toxicity”.
Turning to `CC1(C)C2CC=C(COc3ccc4c5c(c(=O)oc4c3)CCC5)C1C2` (centres unmarked) [compound 4], the IC50 with TDP1 [3] is 0.68 µM. Further, the “reduction of the CC50 of camptothecin” value in data set [4] was “eight-fold”.
For `CC(C)=CCC/C(C)=C/COc1ccc2c(-c3ccc(F)cc3)cc(=O)oc2c1` [compound 5], the IC50 in the data set on TDP1 [3] is 0.62 µM. Besides, in the data set on Krebs-2 ascites, the “effect on the antitumor effect of Tpc” value was “significant increase in the antitumor effect of Tpc”.

Usually IC50 stands for the concentration that inhibits the measured activity by half.

The values are drawn from publication PMC7436013, “Design, Synthesis, and Biological Investigation of Novel Classes of 3-Carene-Derived Potent Inhibitors of TDP1” (Molecules, 2020).
